Results as given in ChEMBL document CHEMBL1145929, “Syntheses and binding studies of new [(aryl)(aryloxy)methyl]piperidine derivatives and related compounds as potential antidepressant drugs with high affinity for serotonin (5-HT) and norepinephrine (NE) transporters” (J Med Chem, 2003).
pIC50, pKi: −log10 of the molar value.

Experiments:
[1] = target: T1, 5-hydroxytryptamine receptor 2A (Rattus norvegicus, UniProt P14842); assay: Binding affinity against 5-hydroxytryptamine 2A receptor by displacement of [3H]-ketanserin from rat prefrontal cerebral cortex mambranes; assay type: tissue-based, Frontal cortex
T1 sequence (P14842 whole entry): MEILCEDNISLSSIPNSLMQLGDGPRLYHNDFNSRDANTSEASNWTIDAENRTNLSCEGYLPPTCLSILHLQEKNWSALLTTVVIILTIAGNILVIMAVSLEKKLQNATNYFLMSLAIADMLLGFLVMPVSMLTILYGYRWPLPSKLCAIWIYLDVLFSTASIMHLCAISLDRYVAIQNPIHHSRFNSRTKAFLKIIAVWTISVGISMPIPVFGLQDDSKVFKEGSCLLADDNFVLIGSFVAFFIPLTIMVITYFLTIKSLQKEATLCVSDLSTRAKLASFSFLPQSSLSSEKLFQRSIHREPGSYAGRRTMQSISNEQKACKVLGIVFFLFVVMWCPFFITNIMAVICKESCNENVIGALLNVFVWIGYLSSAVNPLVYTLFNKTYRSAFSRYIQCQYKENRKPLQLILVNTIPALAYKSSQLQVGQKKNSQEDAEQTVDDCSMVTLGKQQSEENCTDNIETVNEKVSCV

[2] = target: T2, 5-hydroxytryptamine receptor 1A (Rattus norvegicus, UniProt P19327); assay: Binding affinity against 5-hydroxytryptamine 1A receptor (5-HT1A) by displacement of [3H]8-OH-DPAT from rat hippocampus membranes; assay type: cell membranes, Membrane
T2 sequence (P19327 whole entry): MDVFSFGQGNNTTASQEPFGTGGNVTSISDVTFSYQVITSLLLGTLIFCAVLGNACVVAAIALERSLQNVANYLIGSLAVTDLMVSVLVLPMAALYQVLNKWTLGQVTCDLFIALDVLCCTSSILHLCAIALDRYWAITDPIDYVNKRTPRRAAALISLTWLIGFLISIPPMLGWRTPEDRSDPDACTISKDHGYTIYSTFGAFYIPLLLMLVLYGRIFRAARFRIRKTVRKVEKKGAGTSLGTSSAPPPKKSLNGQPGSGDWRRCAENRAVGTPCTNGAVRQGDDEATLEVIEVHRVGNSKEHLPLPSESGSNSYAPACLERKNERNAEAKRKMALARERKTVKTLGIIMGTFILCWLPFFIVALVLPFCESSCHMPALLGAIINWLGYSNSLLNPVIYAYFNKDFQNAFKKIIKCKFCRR

[3] = target: T3, Sodium-dependent serotonin transporter (Rattus norvegicus, UniProt P31652); assay: Binding affinity to the serotonin transporter (SERT) measured by displacement of [3H]paroxetine in male wistar rats
T3 sequence (P31652 whole entry): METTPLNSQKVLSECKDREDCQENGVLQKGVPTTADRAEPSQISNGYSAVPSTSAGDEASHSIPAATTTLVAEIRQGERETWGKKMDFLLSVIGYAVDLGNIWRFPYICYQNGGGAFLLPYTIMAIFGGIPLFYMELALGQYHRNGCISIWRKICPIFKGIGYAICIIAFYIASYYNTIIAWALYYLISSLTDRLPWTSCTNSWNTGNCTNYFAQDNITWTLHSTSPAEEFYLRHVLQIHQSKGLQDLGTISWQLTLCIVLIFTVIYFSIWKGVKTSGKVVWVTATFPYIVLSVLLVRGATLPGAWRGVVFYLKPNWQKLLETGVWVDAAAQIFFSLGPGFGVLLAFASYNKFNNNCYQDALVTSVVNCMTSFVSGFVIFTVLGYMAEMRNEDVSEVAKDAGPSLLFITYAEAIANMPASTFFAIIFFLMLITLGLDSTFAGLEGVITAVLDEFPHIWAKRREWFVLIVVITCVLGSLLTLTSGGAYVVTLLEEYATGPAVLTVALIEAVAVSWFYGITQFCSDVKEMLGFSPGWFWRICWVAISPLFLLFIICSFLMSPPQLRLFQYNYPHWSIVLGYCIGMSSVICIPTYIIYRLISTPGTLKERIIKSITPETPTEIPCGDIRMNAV

[4] = target: Sodium-dependent dopamine transporter (Rattus norvegicus, UniProt P23977); assay: Binding affinity against dopamine transporter (DAT) by displacement of [3H]WIN-35428 in male wistar rats
Chain of Sodium-dependent dopamine transporter (P23977 whole entry): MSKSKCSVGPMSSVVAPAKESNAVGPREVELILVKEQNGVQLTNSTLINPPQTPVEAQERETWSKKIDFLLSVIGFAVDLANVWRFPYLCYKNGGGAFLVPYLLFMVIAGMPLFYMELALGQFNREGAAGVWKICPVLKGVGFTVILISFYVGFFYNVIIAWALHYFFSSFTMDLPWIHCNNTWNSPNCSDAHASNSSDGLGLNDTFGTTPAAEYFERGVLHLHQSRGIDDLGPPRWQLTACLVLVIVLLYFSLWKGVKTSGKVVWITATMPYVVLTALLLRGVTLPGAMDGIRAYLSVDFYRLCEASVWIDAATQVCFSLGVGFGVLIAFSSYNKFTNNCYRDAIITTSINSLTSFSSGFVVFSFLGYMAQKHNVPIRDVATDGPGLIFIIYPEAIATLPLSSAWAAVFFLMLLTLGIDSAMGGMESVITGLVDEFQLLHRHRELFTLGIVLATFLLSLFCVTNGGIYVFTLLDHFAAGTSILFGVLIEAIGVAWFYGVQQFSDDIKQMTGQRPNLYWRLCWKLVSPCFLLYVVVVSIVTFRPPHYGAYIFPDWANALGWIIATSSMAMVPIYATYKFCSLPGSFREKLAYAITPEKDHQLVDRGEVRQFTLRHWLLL

[5] = target: Norepinephrine transporter (Rattus norvegicus, UniProt Q9WTR4); assay: Binding affinity against norepinephrine transporter (NET) by displacement of [3H]nisoxetine in male wistar rats
Chain of Norepinephrine transporter (Q9WTR4 whole entry): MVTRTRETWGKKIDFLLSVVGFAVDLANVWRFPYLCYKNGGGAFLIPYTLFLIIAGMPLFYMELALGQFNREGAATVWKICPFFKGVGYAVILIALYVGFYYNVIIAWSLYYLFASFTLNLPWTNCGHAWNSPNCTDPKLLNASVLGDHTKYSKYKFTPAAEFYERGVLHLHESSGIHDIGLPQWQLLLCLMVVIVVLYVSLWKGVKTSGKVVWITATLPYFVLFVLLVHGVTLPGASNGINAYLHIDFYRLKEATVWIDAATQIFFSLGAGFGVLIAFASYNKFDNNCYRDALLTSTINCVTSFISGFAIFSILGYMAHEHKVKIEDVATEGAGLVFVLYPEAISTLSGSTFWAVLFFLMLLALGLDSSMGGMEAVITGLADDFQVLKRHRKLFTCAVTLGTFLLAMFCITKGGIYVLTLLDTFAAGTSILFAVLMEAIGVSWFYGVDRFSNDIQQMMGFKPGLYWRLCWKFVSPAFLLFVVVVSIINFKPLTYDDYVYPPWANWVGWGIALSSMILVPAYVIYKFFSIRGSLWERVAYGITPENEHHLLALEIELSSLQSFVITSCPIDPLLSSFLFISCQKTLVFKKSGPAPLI

[6] = target: T1, 5-hydroxytryptamine receptor 2A; assay: Binding affinity against 5-hydroxytryptamine 2A receptor by displacement of [3H]ketanserin from rat prefrontal cerebral cortex mambranes; assay type: tissue-based, Frontal cortex
[7] = target: T3, Sodium-dependent serotonin transporter; assay: Binding affinity against serotonin transporter (SERT) by displacement of [3H]paroxetine in male wistar rats
[8] = target: T2, 5-hydroxytryptamine receptor 1A; assay: Displacement of [3H]8-OH-DPAT from 5-hydroxytryptamine 1A receptor of rat hippocampus mambranes; assay type: tissue-based
[9] = target: T3, Sodium-dependent serotonin transporter; assay: Binding affinity against serotonin transporter (SERT) by displacement of [3H]paroxetine in male wistar rat

SMILES | pIC50 [1] | pIC50 [2] | pKi [3] | pIC50 [4] | pKi [6] | pIC50 [7] | also measured
O=[N+]([O-])c1ccc(OC(c2ccccc2)C2CCNCC2)cc1 (single isomer, unassigned; (-)) | < 6.00 | < 6.00 | 9.22 | < 6.00 |  |  | pIC50 [5]: < 6.30
Fc1ccc(OC(c2cccc(F)c2)C2CCNCC2)cc1 (stereo unspecified) |  | < 6.00 | 8.24 |  | 6.44 |  | 
Fc1cccc(OC(c2ccccc2)C2CCNCC2)c1 (stereo in doubt; (+)-15j) | < 6.00 | < 6.00 |  |  |  |  | pKi [4]: 6.79; pKi [5]: 7.01
CCCN(CCC)C1CCc2cccc(O)c2C1 (stereo unspecified) [8-OH-DPAT] | < 6.00 |  |  | < 6.00 |  | < 6.00 | pIC50 [5]: < 6.00
O=C(CCC(Oc1ccccc1F)c1ccccc1)C1CCN(c2ccc(F)cc2)CC1 (stereo unspecified) |  |  |  |  | 8.10 | < 6.00 | pKi [8]: 7.42
COc1ccc(OC(CCC(=O)C2CCN(c3ccc(F)cc3)CC2)c2ccccc2)cc1 (stereo unspecified) |  |  |  |  | 7.27 | < 6.00 | pKi [8]: 7.03
COc1ccc(OC(CCN2CCN(c3noc4ccccc34)CC2)c2ccccc2)cc1 (stereo unspecified) |  |  |  |  | 7.72 | < 6.00 | pKi [8]: 6.74
Fc1cc(F)cc(OC(c2ccccc2)C2CCNCC2)c1 (stereo in doubt; (+)-15aj) | < 6.00 | < 6.00 | 8.15 | < 6.30 |  |  | 
Fc1ccccc1OC(CCN1CCN(c2noc3ccccc23)CC1)c1ccccc1 (stereo unspecified) |  |  |  |  | 7.76 | < 6.00 | pKi [8]: 6.93
Fc1ccccc1OC(c1ccccc1)C1CCNCC1 (single isomer, unassigned; (+)) | < 6.00 | < 6.00 | 7.55 |  |  |  | pKi [4]: 6.28; pKi [5]: 7.38
Fc1cc(F)cc(OC(c2ccccc2)C2CCNCC2)c1 (stereo in doubt; (-)-15aj) | < 6.00 | < 6.00 |  | < 6.00 |  |  | 
Brc1ccc(OC(c2ccccc2)C2CCNCC2)cc1 (single isomer, unassigned; (-)) | < 6.00 | < 6.00 | 8.24 | < 6.00 |  |  | pIC50 [5]: < 6.30
Fc1ccccc1OC(CCN1CCN(c2nsc3ccccc23)CC1)c1ccccc1 (stereo unspecified) |  |  |  |  | 8.28 |  | pKi [8]: 7.15; pIC50 [9]: < 6.00
Fc1cccc(C(Oc2ccccc2F)C2CCNCC2)c1 (single isomer, unassigned; (+)) | < 6.00 | < 6.00 |  |  |  |  | pKi [5]: 7.32
Fc1cccc(OC(c2cccc(F)c2)C2CCNCC2)c1 (single isomer, unassigned; (+)) | < 6.00 | < 6.00 | 8.55 | < 6.30 |  |  | 
c1ccc(C(Oc2cccc3ccccc23)C2CCNCC2)cc1 (stereo in doubt; (-)-15au) | < 6.00 | < 6.00 | 7.55 | < 6.00 |  |  | pIC50 [5]: < 6.00
Nc1ccc(OC(CCC(=O)C2CCN(c3ccc(F)cc3)CC2)c2ccccc2)cc1 (stereo unspecified) |  |  |  |  | 7.79 | < 6.00 | pKi [8]: 6.97
c1ccc(-c2ccccc2OC(c2ccccc2)C2CCNCC2)cc1 (stereo unspecified) |  | < 6.00 |  |  | 6.83 | < 6.00 | 
Brc1ccc(OC(c2ccccc2)C2CCNCC2)cc1 (single isomer, unassigned; (+)) | < 6.00 | < 6.00 | 7.63 | < 6.00 |  |  | pIC50 [5]: < 6.00
FC(F)(F)c1ccc(OC(c2ccccc2)C2CCNCC2)cc1 (stereo in doubt; (+)-15q) |  |  |  | < 6.00 |  |  | pIC50 [5]: < 6.00
O=C(CCC(Oc1ccc([N+](=O)[O-])cc1)c1ccccc1)C1CCN(c2ccc(F)cc2)CC1 (stereo unspecified) |  | < 6.00 |  |  | 7.64 | < 6.00 | 
Clc1cccc(OC(c2ccccc2)C2CCNCC2)c1 (stereo in doubt; (+)-15l) | < 6.00 | < 6.00 |  | < 6.00 |  |  | 

SMILES | pIC50 [1] | pIC50 [2] | pKi [3] | pIC50 [4] | pKi [6] | pIC50 [7] | also measured
Nc1ccc(OC(CCC(=O)C2CCN(c3ccc(F)cc3)CC2)c2ccc(F)cc2)cc1 (stereo unspecified) |  | < 6.00 |  |  | 7.84 | < 6.00 | 
c1ccc(C(Oc2cccc3ccccc23)C2CCNCC2)cc1 (single isomer, unassigned; (+)) | < 6.00 | < 6.00 | 7.70 | < 6.00 |  |  | pKi [5]: 6.38
N#Cc1cccc(OC(c2ccccc2)C2CCNCC2)c1 (single isomer, unassigned; (+)) | < 6.00 | < 6.00 | 8.85 | < 6.00 |  |  | 
O=[N+]([O-])c1ccc(OC(c2ccccc2)C2CCNCC2)cc1 (single isomer, unassigned; (+)) | < 6.00 | < 6.00 |  | < 6.00 |  |  | pIC50 [5]: < 6.00
Fc1ccc(OC(CC2CCNCC2)c2ccccc2)cc1 (stereo unspecified) |  | < 6.00 | 7.11 |  | 6.85 |  | 
FC(F)(F)c1ccccc1OC(CCN1CCN(c2nsc3ccccc23)CC1)c1ccccc1 (stereo unspecified) |  |  |  |  | 7.62 | < 6.00 | pKi [8]: 6.35
O=C(CCC(Oc1ccc([N+](=O)[O-])cc1)c1ccc(F)cc1)C1CCN(c2ccc(F)cc2)CC1 (stereo unspecified) |  | < 6.00 |  |  | 7.26 | < 6.00 | 
COc1ccc(OC(CCN2CCN(c3nsc4ccccc34)CC2)c2ccccc2)cc1 (stereo unspecified) |  |  |  |  | 7.99 | < 6.00 | pKi [8]: 7.16
OC1(c2ccc(Cl)cc2)c2ccccc2C2=NCCN21 (stereo unspecified) [MAZINDOL] | < 6.00 | < 6.00 | 6.61 |  |  |  | pKi [4]: 7.35; pKi [5]: 9.10
CN1CCC(C(Oc2ccc(F)cc2)c2ccccc2)CC1 (stereo unspecified) |  | < 6.00 |  |  | 7.35 | < 6.00 | 
Clc1cccc(OC(c2ccccc2)C2CCNCC2)c1 (stereo in doubt; (-)-15l) | < 6.00 | < 6.00 |  | < 6.30 |  |  | 
Fc1ccccc1OC(c1ccccc1)C1CCNCC1 (single isomer, unassigned; (-)) | < 6.00 | < 6.00 |  | < 6.00 |  |  | pKi [5]: 7.65
N#Cc1cccc(OC(c2ccccc2)C2CCNCC2)c1 (single isomer, unassigned; (-)) | < 6.00 | < 6.00 | 8.85 |  |  |  | pKi [4]: 6.96
CN1CCN2c3ncccc3Cc3ccccc3C2C1 (stereo unspecified) [MIRTAZAPINE] |  | < 6.00 |  | < 6.00 |  | < 6.00 | pIC50 [5]: < 6.00
FC(F)(F)c1ccc(OC(c2ccccc2)C2CCNCC2)cc1 (single isomer, unassigned; (-)) |  |  |  | < 6.00 |  |  | pIC50 [5]: < 6.00
Fc1cccc(OC(c2ccccc2)C2CCNCC2)c1 (stereo in doubt; (-)-15j) | < 6.00 | < 6.00 |  |  |  |  | pKi [5]: 7.87
FC(F)(F)c1cccc(OC(CCN2CCN(c3nsc4ccccc34)CC2)c2ccccc2)c1 (stereo unspecified) |  | < 6.00 |  |  | 7.55 | < 6.00 | 
Fc1ccc(OC(CC2CCNCC2)c2ccc(F)cc2)cc1 (stereo unspecified) |  | < 6.00 | 7.17 |  | 6.71 |  | 
Fc1cccc(C(Oc2ccccc2F)C2CCNCC2)c1 (single isomer, unassigned; (-)) | < 6.00 | < 6.00 | 8.37 | < 6.30 |  |  | pKi [5]: 7.72
Fc1ccc(OC(c2ccccc2)C2CCNCC2)cc1 (stereo in doubt; (+)-15p) | < 6.00 | < 6.00 | 9.40 |  |  |  | pKi [4]: 6.09
O=[N+]([O-])c1ccc(OC(CCN2CCN(c3n[o+][c-]4ccccc34)CC2)c2ccccc2)cc1 (stereo unspecified) |  |  |  |  | 7.27 | < 6.00 | pKi [8]: 6.59
FC(F)(F)c1ccc(OC(CCN2CCN(c3nsc4ccccc34)CC2)c2ccccc2)cc1 (stereo unspecified) |  |  |  |  | 7.40 | < 6.00 | pKi [8]: 7.47
